The values that follow come from US10597388B2, “Pyridazinone herbicides” (FMC CORPORATION, priority 2014, dated 2020).

Assay type in all cases: in vivo
Experiment [1] has as its system chickweed (common chickweed, Stellaria media). In words: Test C greenhouse herbicide test, postemergence. The gist of the method: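 Greenhouse postemergence spray on plants 2–18 cm tall; response judged visually after 13–15 d relative to untreated controls using a 0 (none) to 100 (full control) scale.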
For experiment [2], the system named is oat, wild (wild oat, Avena fatua). The experiment is described as follows: Test D controlled growth environment herbicide test, pre- and postemergence. The source says:
Seeds of plant species selected from bluegrass (annual bluegrass, Poa annua), blackgrass (Alopecurus myosuroides), Canada thistle (Cirsium arvense), canarygrass (Phalaris minor), chickweed (common chickweed, Stellaria media), geranium, cutleaf (cutleaf geranium, Geranium dissectum), galium (catchweed bedstraw, Galium aparine), bromegrass, downy (downy bromegrass, Bromus tectorum), field poppy (Papaver rhoeas), field violet (Viola arvensis), foxtail, green (green foxtail, Setaria viridis), deadnettle (henbit deadnettle, Lamium amplexicaule), ryegrass, Italian (Italian ryegrass, Lolium multiflorum), kochia (Kochia scoparia), lambsquarters (Chenopodium album), oilseed rape (Brassica napus), pigweed (Amaranthus retroflexus), chamomile (scentless chamomile, Matricaria inodora), Russian thistle (Salsola kali), speedwell (bird's-eye speedwell, Veronica persica), barley, spring (spring barley, Hordeum vulgare), wheat, spring (spring wheat, Triticum aestivum), buckwheat, wild (wild buckwheat, Polygonum convolvulus), mustard, wild (wild mustard, Sinapis arvensis), oat, wild (wild oat, Avena fatua), radish, wild (wild radish, Raphanus raphanistrum), windgrass (Apera spica-venti), barley, winter (winter barley, Hordeum vulgare), and wheat, winter (winter wheat, Triticum aestivum) were planted into a silt loam soil and treated preemergence with test chemicals formulated in a non-phytotoxic solvent mixture which included a surfactant.
At the same time, these species were planted in pots containing Redi-Earth® planting medium (Scotts Company, 14111 Scottslawn Road, Marysville, Ohio 43041) comprising spaghnum peat moss, vermiculite, wetting agent and starter nutrients and treated with postemergence applications of the test chemicals formulated in the same manner. Plants ranged in height from 2 to 18 cm (1- to 4-leaf stage). Treated plants and controls were maintained in a controlled growth environment for 14 to 21 d after which time all species were compared to controls and visually evaluated. Plant response ratings, summarized in Table D, are based on a scale of 0 to 100 where 0 is no effect and 100 is complete control. A dash (-) response means no test result.

In experiment [3] the test system is ducksalad (Heteranthera limosa). In words: Test B flooded paddy test. Conditions: Heteranthera limosa, 360 h; 250 g ai/ha, Flood; visual rating on scale of 0 to 100 where 0 is no effect and 100 is complete control; 13 to 15 d after treatment; read-out: Plant response rating, Ducksalad. The gist of the method: (§1)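 Plants at the 2-leaf stage were flooded to 3 cm above soil, and test compounds were applied directly into the paddy water, which was held at that depth throughout. After 13 to 15 d in a greenhouse, injury was rated visually against untreated controls on a 0–100 scale (0 no effect, 100 complete control).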

The test system of a further experiment is rice (Oryza sativa). The experiment is described as follows: Test B flooded paddy test. Conditions: Oryza sativa, 360 h; 250 g ai/ha, Flood; visual rating on scale of 0 to 100 where 0 is no effect and 100 is complete control; 13 to 15 d after treatment; read-out: Plant response rating, Rice. The gist of the method:
as §1

In experiment [4] the test system is barnyardgrass (Echinochloa crus-galli). The experiment is described as follows: Test B flooded paddy test. The conditions noted are these: Echinochloa crus-galli, 360 h; 250 g ai/ha, Flood; visual rating on scale of 0 to 100 where 0 is no effect and 100 is complete control; 13 to 15 d after treatment; read-out: Plant response rating, Barnyardgrass. The essentials: as §1

For experiment [5], the system named is sedge, umbrella (small-flower umbrella sedge, Cyperus difformis). In words: Test B flooded paddy test. Conditions: Cyperus difformis, 360 h; 250 g ai/ha, Flood; visual rating on scale of 0 to 100 where 0 is no effect and 100 is complete control; 13 to 15 d after treatment; read-out: Plant response rating, Sedge, Umbrella. The gist of the method: as §1
Experiment [6] has as its system blackgrass (Alopecurus myosuroides). In words: Test A greenhouse herbicide test, postemergence. Conditions: Alopecurus myosuroides, post-emergence, 240 h; for pest or weed control at 125 g/ha: 125 g ai/ha, read-out: Plant response rating, Blackgrass; for pest or weed control at 500 g/ha: 500 g ai/ha, 0 to 100 scale, 0 is no effect, 100 is complete control, read-out: Blackgrass plant response rating. The essentials: (§2)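 Plants grown in loam soil/sand blend pots were treated postemergence at 2 to 10 cm height, one- to two-leaf stage, with formulated test chemicals. After approximately 10 d in a greenhouse, injury was rated visually against untreated controls on a 0 to 100 scale (0 no effect, 100 complete control).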

Experiment [7] relates to galium (catchweed bedstraw, Galium aparine). In words: Test A greenhouse herbicide test, postemergence. The conditions noted are these: Galium, post-emergence, 240 h; for pest or weed control at 125 g/ha: 125 g ai/ha, read-out: Plant response rating, Galium; for pest or weed control at 500 g/ha: 500 g ai/ha, 0 to 100 scale, 0 is no effect, 100 is complete control, read-out: Galium plant response rating. The gist of the method: as §2

Where [8] appears, read: postemergence, 62 g ai/ha, scale 0 to 100, 0 no effect, 100 complete control.
Where [9] appears, read: visual rating after approx. 10 d, 0 to 100 scale (0 no effect, 100 complete control).
[10] abbreviates: 0 to 100 scale where 0 is no effect and 100 is complete control.

The structures appear in SMILES notation. Where two headings read alike, the source gives them in different places.

Take `Cc1ccc2sc(C)c(-c3c(O)c(C)nn(C)c3=O)c2c1` [Compound 1, 4-(2,5-dimethylbenzo[b]thien-3-yl)-5-hydroxy-2,6-dimethyl-3(2H)-pyridazinone]: the “Chickweed plant response rating” value turned out to be 95 in experiment [1] (Postemergence, 31 g ai/ha, 0 to 100 scale (0 no effect, 100 complete control)) and 95 in experiment [1] (setting [8]). Also, the “Plant response rating, Chickweed” value in experiment [1] (Postemergence, 125 g ai/ha, scale 0 to 100, 0 is no effect, 100 is complete control) is recorded as 98; in experiment [1] (Postemergence, 250 g ai/ha, scale 0 to 100, 0 no effect, 100 complete control, 13 to 15 d), 100. For the same compound, the “Oat, Wild plant response rating” value in experiment [2] (Postemergence, 31 g ai/ha, scale 0 to 100 (0 no effect, 100 complete control)) is recorded as 40. Further, the “Plant response rating, Oat, Wild” value in experiment [2] (Postemergence, 125 g ai/ha, visual rating on scale 0 (no effect) to 100 (complete control), 14 to 21 d) worked out at 80; in experiment [2] (Postemergence, 250 g ai/ha, scale 0 to 100 (0 no effect, 100 complete control)), 95; in experiment [2] (Preemergence, 62 g ai/ha, scale 0 to 100 (0 no effect, 100 complete control)), 70; in experiment [2] (Preemergence, 125 g ai/ha, scale 0 to 100 (0 no effect, 100 complete control)), 95; in experiment [2] (Preemergence, 250 g ai/ha, scale 0 to 100 (0 no effect, 100 complete control)), 100; in experiment [2] (setting [8]), 70. Moreover, in experiment [2] (Preemergence, 31 g ai/ha), the “Plant response rating (scale of 0 to 100), Oat, Wild” value is recorded as 75. The pest or weed control at 250 g/ha in experiment [3] turned out to be 20%; in experiment [4], 0%; in experiment [5], 0%. The plant injury at 250 g/ha with rice (Oryza sativa) came to 0%.

In the case of `Cc1nn(C)c(=O)c(-c2c(C)oc3c(C)cccc23)c1O` [Compound 9, 4-(2,7-dimethyl-3-benzofuranyl)-5-hydroxy-2,6-dimethyl-3(2H)-pyridazinone], the pest or weed control at 250 g/ha in experiment [3], in experiment [4] and in experiment [5] was 0% in each case. In addition, the plant injury at 250 g/ha in the experiment on rice (Oryza sativa) stood at 0%.

As for `Cc1cc(C)c2oc(C)c(-c3c(O)c(C)nn(C)c3=O)c2c1` [Compound 12, 5-hydroxy-2,6-dimethyl-4-(2,5,7-trimethyl-3-benzofuranyl)-3(2H)-pyridazinone], the pest or weed control at 125 g/ha in experiment [6] (setting [9]) turned out to be 20%; in experiment [7] (setting [9]), 60%. Besides, the pest or weed control at 500 g/ha stood at 50% in experiment [6] and 90% in experiment [7]. For the same compound, the pest or weed control at 250 g/ha in experiment [3] is 30%; in experiment [4], 0%; in experiment [5], 0%. In addition, the plant injury at 250 g/ha in the experiment with rice (Oryza sativa) was determined as 0%.

For `CC(=O)Oc1c(C)nn(C)c(=O)c1-c1c(C)oc2c(C)cccc12` [Compound 15, 5-(acetyloxy)-4-(2,7-dimethyl-3-benzofuranyl)-2,6-dimethyl-3(2H)-pyridazinone], the pest or weed control at 125 g/ha in experiment [6] (setting [9]) was 0%; in experiment [7] (setting [9]), 70%. Moreover, the pest or weed control at 500 g/ha is 50% in experiment [6] and 90% in experiment [7]. Further, the pest or weed control at 250 g/ha is 20% in experiment [3], 0% in experiment [4] and 0% in experiment [5]. Besides, the plant injury at 250 g/ha in the experiment on rice (Oryza sativa) came to 0%.

As for `CCc1sc2cc(C)cc(C)c2c1-c1c(O)c(C)nn(C)c1=O` [Compound 19, 4-(2-ethyl-4,6-dimethylbenzo[b]thien-3-yl)-5-hydroxy-2,6-dimethyl-3(2H)-pyridazinone], the results for the pest or weed control at 125 g/ha in experiment [6] (setting [9]) and in experiment [7] (setting [9]) were 0% and 30%, respectively. In addition, the pest or weed control at 500 g/ha in experiment [6] was found to be 0%; in experiment [7], 80%. Moreover, the pest or weed control at 250 g/ha in experiment [3], in experiment [4] and in experiment [5] was 0% in each case. Besides, the plant injury at 250 g/ha in the experiment with rice (Oryza sativa) worked out at 0%.

`COc1nn(C)c(=O)c(-c2c(C)c(C)cc3ccccc23)c1O` [Compound 46, 4-(2,3-dimethyl-1-naphthalenyl)-5-hydroxy-6-methoxy-2-methyl-3(2H)-pyridazinone]: the pest or weed control at 125 g/ha is 20% in experiment [6] (setting [10]) and 70% in experiment [7] (setting [10]). Besides, the figures for the pest or weed control at 500 g/ha in experiment [6] and in experiment [7] were 70% and 90%, respectively. Moreover, the pest or weed control at 250 g/ha in experiment [3], in experiment [4] and in experiment [5] was 0% each time. In the experiment with rice (Oryza sativa), the plant injury at 250 g/ha stood at 0%.
